What follows are compounds tested against T1, Recombinant human GR (Homo sapiens, UniProt P04150) (assay: GR competitor assay by fluorescence polarization (binding activity to glucocorticoid receptor)). Conditions: 20 μM test compound solution, 25 μL per well plus 12.5 μL each of 4×GS1 and 4×GR solution; Fluormone GS1 ligand; positive control 2 mM dexamethasone; read-out: GR Binding ratio (%).
T1 construct: purchased Invitrogen P2816
T1 sequence (P04150 1-777): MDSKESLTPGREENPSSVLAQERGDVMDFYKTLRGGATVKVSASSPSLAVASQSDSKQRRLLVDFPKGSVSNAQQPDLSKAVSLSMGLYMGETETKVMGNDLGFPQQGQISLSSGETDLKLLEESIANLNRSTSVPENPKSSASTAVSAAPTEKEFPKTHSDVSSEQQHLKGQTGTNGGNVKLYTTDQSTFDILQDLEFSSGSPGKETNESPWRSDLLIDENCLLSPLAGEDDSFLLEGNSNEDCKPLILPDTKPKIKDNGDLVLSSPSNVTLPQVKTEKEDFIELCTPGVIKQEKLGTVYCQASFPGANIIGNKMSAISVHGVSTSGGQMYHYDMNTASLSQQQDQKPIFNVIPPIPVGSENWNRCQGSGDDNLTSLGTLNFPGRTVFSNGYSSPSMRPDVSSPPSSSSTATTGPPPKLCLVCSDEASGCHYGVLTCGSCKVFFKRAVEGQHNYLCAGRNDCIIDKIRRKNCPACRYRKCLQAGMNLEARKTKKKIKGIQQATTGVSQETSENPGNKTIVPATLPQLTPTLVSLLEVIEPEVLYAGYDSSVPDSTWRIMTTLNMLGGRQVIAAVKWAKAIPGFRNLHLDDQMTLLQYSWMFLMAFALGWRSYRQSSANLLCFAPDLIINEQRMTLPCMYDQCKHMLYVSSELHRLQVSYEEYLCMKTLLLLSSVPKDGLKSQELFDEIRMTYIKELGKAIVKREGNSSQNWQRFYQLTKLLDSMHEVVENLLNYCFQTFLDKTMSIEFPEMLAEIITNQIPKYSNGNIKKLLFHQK
Description: 1. Evaluation Test for Binding Activity to Glucocorticoid Receptor (Hereinafter Referred to as “GR”)
In order to evaluate a binding activity to GR, a receptor competitor assay was carried out by a fluorescence polarization method. In the assay, a GR competitor assay kit (manufactured by Invitrogen, cat No. P2816) was used, and a procedure was carried out according to the protocol attached to the kit. Hereinafter, the specific method will be described.
GR screening buffer: A buffer containing 10 mM potassium phosphate (pH 7.4), 20 mM sodium molybdate (Na2MoO4), 0.1 mM ethylene diamine tetraacetic acid (EDTA), 5 mM dithiothreitol (DTT), 0.1 mM stabilizing peptide and 2% dimethylsulfoxide was prepared.
4×GS1 solution: Fluormone™ GS1, which is a fluorescent glucocorticoid ligand, was diluted with GR screening buffer, whereby a 4 nM solution was prepared.
4×GR solution: Recombinant human GR was diluted with GR screening buffer, whereby a 16 nM solution was prepared.
After a test compound was dissolved in dimethylsulfoxide, the resulting solution was diluted with GR screening buffer, whereby a 20 μM test compound solution was prepared.
1) The test compound solution was added in an amount of 25 μL into each well of a 96-well plate, and then, 4×GS1 solution and 4×GR solution were added in an amount of 12.5 μL into each well, respectively.
2) The plate was incubated in a dark place at room temperature for 2 to 4 hours.
3) By using a multimode plate reader, Analyst™ HT (manufactured by LJL Biosystems), fluorescence polarization of each well was measured. As the blank, a well containing GR screening buffer in place of the test compound and 4×GS1 solution was used.
4) The same procedure as that in the above 1) to 3) was carried out except that GR screening buffer was used in place of the test compound solution, and the obtained result was taken as the negative control.
5) The same procedure as that in the above 1) to 3) was carried out except that 2 mM dexamethasone was used in place of the test compound solution, and the obtained result was taken as the positive control.
A GR binding ratio (%) was calculated from the following equation.
GR binding ratio (%)=100×[1-(fluorescence polarization of test compound solution-fluorescence polarization of positive control solution)/(fluorescence polarization of negative control solution—fluorescence polarization of positive control solution)]

SMILES | inhibition at 10 µM [%]
COC(=O)Oc1ccc(-c2ccc3c(c2COc2cc(F)ccc2C)N(C)C(=O)C(C)(C)N3)c(OC)c1 [Compound 14-35] | 93
COc1cc(OC(=O)Oc2ccccc2)ccc1-c1ccc2c(c1COc1cc(F)ccc1C)N(C)C(=O)C(C)(C)N2 [Compound 14-36] | 88
COc1cc(NC(=O)Oc2ccccc2)ccc1-c1ccc2c(c1COc1cc(F)ccc1C)N(C)C(=O)C(C)(C)N2 [Compound 14-37] | 93
COc1cc(OC(=O)c2ccccc2F)ccc1-c1ccc2c(c1COC(=O)c1ccc(C)s1)N(C)C(=O)C(C)(C)N2 [Compound 14-44] | 100
COC(=O)c1cccc(C(=O)Oc2ccc(-c3ccc4c(c3COc3cc(F)ccc3C)N(C)C(=O)C(C)(C)N4)c(OC)c2)c1 [Compound 15-1, 8-(5-Fluoro-2-methylphenoxymethyl)-7-[2-methoxy-4-(3-methoxycarbonylbenzoyloxy)phenyl]-1,3,3-trimethyl-3,4-dihydro-1H-quinoxalin-2-one] | 100
COc1cc(OC(=O)c2cccnc2C)ccc1-c1ccc2c(c1COc1cc(F)ccc1C)N(C)C(=O)C(C)(C)N2 [Compound 15-2] | 100
COc1cc(OC(=O)c2ccccc2OC(C)=O)ccc1-c1ccc2c(c1COc1cc(F)ccc1C)N(C)C(=O)C(C)(C)N2 [Compound 15-4] | 98
COc1cc(OC(=O)c2ccccc2SC)ccc1-c1ccc2c(c1COc1cc(F)ccc1C)N(C)C(=O)C(C)(C)N2 [Compound 15-6] | 100
COc1cc(OC(=O)c2ccc(C)nc2)ccc1-c1ccc2c(c1COc1cc(F)ccc1C)N(C)C(=O)C(C)(C)N2 [Compound 15-9] | 100
COc1cc(OC(=O)c2cocn2)ccc1-c1ccc2c(c1COc1cc(F)ccc1C)N(C)C(=O)C(C)(C)N2 [Compound 15-11] | 100
COc1cc(OC(=O)c2cccc(C(C)=O)c2)ccc1-c1ccc2c(c1COc1cc(F)ccc1C)N(C)C(=O)C(C)(C)N2 [Compound 15-13] | 100
COc1cc(OC(=O)c2sccc2Cl)ccc1-c1ccc2c(c1COc1cc(F)ccc1C)N(C)C(=O)C(C)(C)N2 [Compound 15-17] | 95
COc1cc(OC(=O)c2cccnc2OC)ccc1-c1ccc2c(c1COc1cc(F)ccc1C)N(C)C(=O)C(C)(C)N2 [Compound 15-22] | 100
COc1cc(OC(=O)c2ccccc2SC)ccc1-c1ccc2c(c1COC(=O)c1ccc(C)s1)N(C)C(=O)C(C)(C)N2 [Compound 15-24] | 94
COc1cc(N(C)C(C)=O)ccc1-c1ccc2c(c1COc1cc(F)ccc1C)N(C)C(=O)C(C)(C)N2 [Compound 16-3, 7-[4-(N-Acetyl-N-methylamino)-2-methoxyphenyl]-8-(5-fluoro-2-methylphenoxymethyl)-1,3,3-trimethyl-3,4-dihydro-1H-quinoxalin-2-one] | 86
COc1cc(OC(=O)Nc2cccnc2)ccc1-c1ccc2c(c1COc1cc(F)ccc1C)N(C)C(=O)C(C)(C)N2 [Compound 17-5, 8-(5-Fluoro-2-methylphenoxymethyl)-7-[2-methoxy-4-(pyridin-3-ylaminocarbonyloxy)phenyl]-1,3,3-trimethyl-3,4-dihydro-1H-quinoxalin-2-one] | 91
COc1cc(OC(=O)Nc2ccccc2)ccc1-c1ccc2c(c1COC(=O)c1ccc(C)s1)N(C)C(=O)C(C)(C)N2 [Compound 17-16, 7-(2-Methoxy-4-phenylaminocarbonyloxyphenyl)-8-(5-methylthiophen-2-ylcarbonyloxymethyl)-1,3,3-trimethyl-3,4-dihydro-1H-quinoxalin-2-one] | 88
COc1cc(OC(=O)N(C)C)ccc1-c1ccc2c(c1COc1cc(F)ccc1C)N(C)C(=O)C(C)(C)N2 [Compound 18-2, 7-(4-Dimethylaminocarbonyloxy-2-methoxyphenyl)-8-(5-fluoro-2-methylphenoxymethyl)-1,3,3-trimethyl-3,4-dihydro-1H-quinoxalin-2-one] | 99
COc1ccc([N+](=O)[O-])cc1OCc1c(-c2ccc(OC(=O)c3ccccc3C)cc2OC)ccc2c1NC(=O)C(C)(C)N2 [Compound 22, 7-[2-Methoxy-4-(2-methylbenzoyloxy)phenyl]-8-(2-methoxy-5-nitrophenoxymethyl)-3,3-dimethyl-3,4-dihydro-1H-quinoxalin-2-one] | 100

The remaining lines, values ahead:

inhibition at 10 µM [%] | SMILES
100 | COc1cc(OC(=O)N2CCOCC2)ccc1-c1ccc2c(c1COc1cc(F)ccc1C)N(C)C(=O)C(C)(C)N2 [Compound 18-1, 8-(5-Fluoro-2-methylphenoxymethyl)-7-[2-methoxy-4-(morpholin-4-ylcarbonyloxy)phenyl]-1,3,3-trimethyl-3,4-dihydro-1H-quinoxalin-2-one]
100 | COc1ccccc1NCc1c(-c2ccc(O)cc2OC)ccc2c1N(C)C(=O)C(C)(C)N2 [Compound 21-3, 7-(4-Hydroxy-2-methoxyphenyl)-8-(2-methoxyphenylaminomethyl)-1,3,3-trimethyl-3,4-dihydro-1H-quinoxalin-2-one]
98 | CCCC(=O)Oc1ccc(-c2ccc3c(c2CNc2ccccc2OC)N(C)C(=O)C(C)(C)N3)c(OC)c1 [Compound 21-5, 7-(4-Butyryloxy-2-methoxyphenyl)-8-(2-methoxyphenylaminomethyl)-1,3,3-trimethyl-3,4-dihydro-1H-quinoxalin-2-one]
100 | COc1ccccc1NCc1c(-c2ccc(OC(=O)c3cccnc3C)cc2OC)ccc2c1N(C)C(=O)C(C)(C)N2 [Compound 21-12, 7-[2-Methoxy-4-(2-methylpyridin-3-ylcarbonyloxy)phenyl]-8-(2-methoxyphenylaminomethyl)-1,3,3-trimethyl-3,4-dihydro-1H-quinoxalin-2-one]
94 | COc1ccccc1NCc1c(-c2ccc(OC(=O)c3cscn3)cc2OC)ccc2c1N(C)C(=O)C(C)(C)N2 [Compound 21-13, 8-(2-Methoxyphenylaminomethyl)-7-[2-methoxy-4-(thiazol-4-ylcarbonyloxy)phenyl]-1,3,3-trimethyl-3,4-dihydro-1H-quinoxalin-2-one]
100 | COc1cc(OC(=O)c2ccccc2C)ccc1-c1ccc2c(c1CNc1cc(F)ccc1C)N(C)C(=O)C(C)(C)N2 [Compound 21-22, 8-(5-Fluoro-2-methylphenylaminomethyl)-7-[2-methoxy-4-(2-methylbenzoyloxy)phenyl]-1,3,3-trimethyl-3,4-dihydro-1H-quinoxalin-2-one]

— US8551991B2, “1,2,3,4-tetrahydroquinoxaline derivative having glucocorticoid receptor binding activity” (Santen Pharmaceutical Co., Ltd., priority 2006, dated 2013)
